Results on 18 compounds are retold here after BindingDB's records for doi:10.7270/Q29G5K5D (Cc_Pmlsc, 2007).

Molecules are shown by their SMILES. Some results are limits rather than exact numbers.

This assay concerns the target T1, Dual specificity protein phosphatase 1 (Homo sapiens, UniProt P28562).
T1 sequence (P28562 whole entry): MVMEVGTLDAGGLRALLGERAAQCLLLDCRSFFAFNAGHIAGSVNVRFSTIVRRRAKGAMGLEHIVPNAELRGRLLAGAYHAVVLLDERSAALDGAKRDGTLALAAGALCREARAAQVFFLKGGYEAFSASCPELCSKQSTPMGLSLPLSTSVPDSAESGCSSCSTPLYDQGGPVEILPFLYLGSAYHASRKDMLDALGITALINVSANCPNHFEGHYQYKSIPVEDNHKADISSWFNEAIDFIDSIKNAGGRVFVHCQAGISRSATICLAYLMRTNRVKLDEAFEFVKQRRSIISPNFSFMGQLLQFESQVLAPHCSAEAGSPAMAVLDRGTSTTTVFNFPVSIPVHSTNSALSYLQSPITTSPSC
Nature of the assay: MKP-1 phosphatase inhibitors, SAR follow-up, biochemical, in vitro (AID 579). The conditions noted are these: pH 7; 23 °C.
Compound `Cn1c(N)c(C(=O)COC(=O)c2cc(-c3ccco3)nc3ccccc23)c(=O)n(Cc2ccccc2)c1=O` [2-(2-furanyl)-4-quinolinecarboxylic acid [2-[6-amino-1-methyl-2,4-dioxo-3-(phenylmethyl)-5-pyrimidinyl]-2-oxoethyl] ester] yielded an IC50 of 16.9 µM.
The value for `O=C(O)c1cc(C(F)(F)F)nc2ccccc12` [2-(trifluoromethyl)-4-quinolinecarboxylic acid] was above 50 µM; that for `Cn1c(N)c(C(=O)CCl)c(=O)n(Cc2ccccc2)c1=O` [6-amino-3-benzyl-5-(2-chloroacetyl)-1-methyl-pyrimidine-2,4-quinone] was above 50 µM; that for `FC(F)(F)c1cc(Br)c2cccc(C(F)(F)F)c2n1` [4-bromanyl-2,8-bis(trifluoromethyl)quinoline] was above 50 µM.
`Oc1cc(C(F)(F)F)nc2c(C(F)(F)F)cccc12` [2,8-bis(trifluoromethyl)-1H-quinolin-4-one] showed a half-maximal inhibitory concentration (IC50) above 50 µM.
The value for `CC(C)Cn1c(N)c(C(=O)COC(=O)c2cc(-c3ccccc3)nc3ccccc23)c(=O)n(C)c1=O` [2-phenyl-4-quinolinecarboxylic acid [2-[4-amino-1-methyl-3-(2-methylpropyl)-2,6-dioxo-5-pyrimidinyl]-2-oxoethyl] ester] was above 50 µM; that for `Cn1c(=O)c(C(=O)COC(=O)c2cc(-c3ccco3)nc3ccccc23)c(N)n(CC2CC2)c1=O` [2-(2-furanyl)-4-quinolinecarboxylic acid [2-[6-amino-1-(cyclopropylmethyl)-3-methyl-2,4-dioxo-5-pyrimidinyl]-2-oxoethyl] ester] was 24.6 µM.
The compound `CC(C)Cn1c(N)c(C(=O)COC(=O)c2cc(C(F)(F)F)nc3ccccc23)c(=O)n(C)c1=O` [2-(trifluoromethyl)-4-quinolinecarboxylic acid [2-[4-amino-1-methyl-3-(2-methylpropyl)-2,6-dioxo-5-pyrimidinyl]-2-oxoethyl] ester] displayed a 50% inhibitory concentration (IC50) above 50 µM.
The figure for `Cn1c(=O)c(C(=O)CCl)c(N)n(CC2CC2)c1=O` [6-amino-5-(2-chloro-1-oxoethyl)-1-(cyclopropylmethyl)-3-methylpyrimidine-2,4-dione] is above 50 µM; for `Nc1cc(=O)[nH]c(=O)n1CC1CC1` it is above 50 µM.
The value for `Cn1c(N)c(C(=O)COC(=O)c2ccnc3ccccc23)c(=O)n(C)c1=O` [4-quinolinecarboxylic acid [2-(4-amino-1,3-dimethyl-2,6-dioxo-5-pyrimidinyl)-2-oxoethyl] ester] was above 50 µM.
Compound `CN(C)C=Nc1cc(=O)[nH]c(=O)n1Cc1ccccc1` [N'-[2,6-dioxo-3-(phenylmethyl)-4-pyrimidinyl]-N,N-dimethylmethanimidamide] registered a 50% inhibitory concentration (IC50) above 50 µM.
The value for `Cn1c(N)cc(=O)n(Cc2ccccc2)c1=O` [6-amino-1-methyl-3-(phenylmethyl)pyrimidine-2,4-dione] was above 50 µM; that for `CC(C)Cn1c(N)c(C(=O)CCl)c(=O)n(C)c1=O` [6-amino-5-(2-chloro-1-oxoethyl)-3-methyl-1-(2-methylpropyl)pyrimidine-2,4-dione] was above 50 µM; that for `Cn1c(=O)c(C(=O)CCl)c(N)n(Cc2ccccc2)c1=O` [6-amino-1-benzyl-5-(2-chloroacetyl)-3-methyl-pyrimidine-2,4-quinone] was above 50 µM.
The figure for `CN(C)C=Nc1cc(=O)[nH]c(=O)n1C` [N,N-dimethyl-N'-(3-methyl-2,6-dioxo-4-pyrimidinyl)methanimidamide] is above 50 µM; for `O=C(O)c1cc(C2CC2)nc2ccccc12` [2-cyclopropyl-4-quinolinecarboxylic acid] it is above 50 µM.
The value for `Cn1c(=O)c(C(=O)COC(=O)c2cc(-c3ccco3)nc3ccccc23)c(N)n(Cc2ccccc2)c1=O` [[2-(6-amino-1-benzyl-3-methyl-2,4-dioxopyrimidin-5-yl)-2-oxoethyl] 2-(furan-2-yl)quinoline-4-carboxylate] was 13.4 µM.

By IC50 is commonly meant the concentration needed to halve the response being measured. A lower IC50 goes with inhibition by little substance.
